Test results from publication PMC10712727, “Safety, Tolerability, and Pharmacokinetics of Senaparib, a Novel PARP1/2 Inhibitor, in Chinese Patients With Advanced Solid Tumors: A Phase I Trial” (The Oncologist, 2023).

Assays:
[1] = Plasma pharmacokinetics in continuous dosing period, cycle 1 day 15 steady state (HPLC-MS/MS); type: in vivo, human; details: dose range of 2-120 mg
[2] = Plasma pharmacokinetics after single-dose administration (HPLC-MS/MS); type: in vivo, human
Experimental: Dose escalation was conducted using a modified Fibonacci 3 + 3 method (Supplementary Fig. […] At a given dose level, each patient received a single dose of senaparib followed by a 7-day washout period. They then entered a continuous dosing period to confirm the safety and PK profile, in which they received senaparib QD from day 1 to day 21 of each 3-week cycle. Progression to the next higher dose required approval from the Data Safety Monitoring Committee (DSMC) upon review of the safety and PK data of the previous dose. A 50-mg twice-daily (BID) dosing group was added (planned enrollment, n = 6 patients) based on a DSMC review of the safety, PK, and efficacy analysis of the completed QD dose groups in the phase I clinical trial of senaparib dose escalation in Australia (NCT03507543), which commenced prior to the start of this trial. Safety was assessed by recording the incidence of dose-limiting toxicities (DLTs), and the incidence, nature, severity (graded per National Cancer Institute Common Terminology Criteria for Adverse Events version 4.03 [NCI CTCAE v4.03][18]), and relatedness of treatment-emergent adverse events (TEAEs). DLTs were predefined toxicities (Supplementary Table S2) recorded over the 7 days following the single-dose administration of senaparib and during the first treatment cycle (day 1-day 21) for each dose group in the dose-escalation period only. […] Senaparib PK parameters were derived from blood samples collected from patients after the single administration, and at regular intervals during the first cycle of the dose-escalation and dose-expansion periods. Plasma concentrations of senaparib were determined using high-performance liquid chromatography-tandem mass spectrometry. […] There was no formal sample size calculation based on statistical hypothesis testing for this study; the planned enrolment was approximately 30-60 patients across the dose-escalation and dose-expansion cohorts. The actual number in the dose-escalation cohort was adjusted based on the number of dose cohorts required for the modified Fibonacci dose-escalation design and the determined MTD. Definitions for all analysis populations (safety, DLT, PK, and efficacy [intent-to-treat, ITT]) are provided in Supplementary Table S2. No statistical tests were performed; patient demographic and baseline characteristics, safety/tolerability, PK parameters, and efficacy were evaluated descriptively. ORR and DCR and their 95% CIs were calculated for each group using the exact probability method. Kaplan-Meier statistics were used to estimate DOR and PFS, and their 95% CIs for each dose group separately. Dose linearity was explored based on the single-dose data of area under the time-concentration curve (AUC) and maximum plasma concentration (Cmax) using the power model (Y = α × dose β) for the dose range 2-80 mg on a log-transformed scale. The following criterion was used to determine whether dose proportionality was met: if the (2-sided) 90% CI for β was wholly contained within the interval (1 + log(0.5)/log(r), 1 + log(2)/log(r)), then dose proportionality was supported. Here, r was defined as the ratio of the highest to lowest dose. All data analyses were carried out using SAS EG7.1 or higher or (for PK parameters) WinNonlin 7.0 or higher.

Structure (SMILES): O=C(c1cc(Cn2c(=O)[nH]c(=O)c3c(F)cccc32)ccc1F)N1CCN(c2ncccn2)CC1 [Senaparib]
- Dose linearity [1]: Dose linearity was not observed
- Elimination half-life, range ([2]; human, in vivo): 5.1 to 24.3 h
- Mean apparent clearance, range across dose groups ([2]; human, in vivo): 1.0 to 6.3 L/h
- Mean volume of distribution, range across dose groups ([2]; human, in vivo): 15.5 to 88.7 L
- Median time to Cmax, range across dose groups ([2]; human, in vivo): 0.5 to 6.0 h
- AUC0-inf, mean±SD ([2]; human, in vivo, 2 mg): 1754.1 ng·h/mL
- AUC0-t, mean±SD ([2]; human, in vivo, 2 mg): 1462.4 ng·h/mL
- CL/F, mean±SD ([2]; human, in vivo, 2 mg): 1.1 L/h
- Cmax, mean±SD ([2]; human, in vivo, 2 mg): 177.0 ng/mL
- Tmax, median (range) ([2]; human, in vivo, 2 mg): 1.0 (1.0-1.0) h
- Vd/F, mean±SD ([2]; human, in vivo, 2 mg): 21.3 L
- t½, median (range) ([2]; human, in vivo, 2 mg): 13.0 (13.0-13.0) h
- λz, mean±SD ([2]; human, in vivo, 2 mg): 5.3 h⁻¹
- AUC0-inf, mean±SD ([2]; human, in vivo, 5 mg): 4107.2 ± 2303.2 ng·h/mL
- AUC0-t, mean±SD ([2]; human, in vivo, 5 mg): 3912.7 ± 2180.7 ng·h/mL
- CL/F, mean±SD ([2]; human, in vivo, 5 mg): 1.5 ± 0.7 L/h
- Cmax, mean±SD ([2]; human, in vivo, 5 mg): 378.7 ± 76.1 ng/mL
- Tmax, median (range) ([2]; human, in vivo, 5 mg): 1.9 (1.9-2.0) h
- Vd/F, mean±SD ([2]; human, in vivo, 5 mg): 15.5 ± 3.5 L
- t½, median (range) ([2]; human, in vivo, 5 mg): 7.7 (5.8-10.8) h
- λz, mean±SD ([2]; human, in vivo, 5 mg): 5.2 ± 4.6 h⁻¹
- AUC0-inf, mean±SD ([2]; human, in vivo, 10 mg): 9954.7 ± 1274.9 ng·h/mL
- AUC0-t, mean±SD ([2]; human, in vivo, 10 mg): 9053.7 ± 887.5 ng·h/mL
- CL/F, mean±SD ([2]; human, in vivo, 10 mg): 1.0 ± 0.1 L/h
- Cmax, mean±SD ([2]; human, in vivo, 10 mg): 606.7 ± 93.5 ng/mL
- Tmax, median (range) ([2]; human, in vivo, 10 mg): 4.0 (2.0-4.0) h
- Vd/F, mean±SD ([2]; human, in vivo, 10 mg): 19.6 ± 0.8 L
- t½, median (range) ([2]; human, in vivo, 10 mg): 14.4 (11.0-15.2) h
- λz, mean±SD ([2]; human, in vivo, 10 mg): 5.2 ± 0.9 h⁻¹
- AUC0-inf, mean±SD ([2]; human, in vivo, 20 mg): 18 955.2±3835.6 h*ng/mL
- AUC0-t, mean±SD ([2]; human, in vivo, 20 mg): 16 945.0±11 287.2 h*ng/mL
- CL/F, mean±SD ([2]; human, in vivo, 20 mg): 1.7 ± 1.4 L/h
- Cmax, mean±SD ([2]; human, in vivo, 20 mg): 1453.3 ± 408.1 ng/mL
- Tmax, median (range) ([2]; human, in vivo, 20 mg): 1.9 (1.8-1.9) h
- Vd/F, mean±SD ([2]; human, in vivo, 20 mg): 19.1 ± 4.5 L
- t½, median (range) ([2]; human, in vivo, 20 mg): 11.2 (5.1-17.1) h
- λz, mean±SD ([2]; human, in vivo, 20 mg): 3.5 ± 3.1 h⁻¹
- AUC0-inf, mean±SD ([2]; human, in vivo, 40 mg): 16 904.8±4182.4 h*ng/mL
- AUC0-t, mean±SD ([2]; human, in vivo, 40 mg): 16 428.2±3762.6 h*ng/mL
- CL/F, mean±SD ([2]; human, in vivo, 40 mg): 2.5 ± 0.7 L/h
- Cmax, mean±SD ([2]; human, in vivo, 40 mg): 1680.0 ± 148.0 ng/mL
- Tmax, median (range) ([2]; human, in vivo, 40 mg): 1.8 (1.0-1.8) h
- Vd/F, mean±SD ([2]; human, in vivo, 40 mg): 30.9 ± 2.6 L
- t½, median (range) ([2]; human, in vivo, 40 mg): 9.3 (7.3-10.2) h
- λz, mean±SD ([2]; human, in vivo, 40 mg): 7.9 ± 1.4 h⁻¹
- AUC0-inf, mean±SD ([2]; human, in vivo, 50 mg): 35 588.9±27 788.9 h*ng/mL
- AUC0-t, mean±SD ([2]; human, in vivo, 50 mg): 12 067.8±5895.4 h*ng/mL
- CL/F, mean±SD ([2]; human, in vivo, 50 mg): 2.4 ± 2.0 L/h
- Cmax, mean±SD ([2]; human, in vivo, 50 mg): 1560.0 ± 564.3 ng/mL
- Tmax, median (range) ([2]; human, in vivo, 50 mg): 0.7 (0.5-3.5) h
- Vd/F, mean±SD ([2]; human, in vivo, 50 mg): 36.4 ± 8.6 L
- t½, median (range) ([2]; human, in vivo, 50 mg): 16.5 (5.7-24.3) h
- λz, mean±SD ([2]; human, in vivo, 50 mg): 3.3 ± 2.9 h⁻¹
- AUC0-inf, mean±SD ([2]; human, in vivo, 60 mg): 25 575.8±10 554.7 h*ng/mL
- AUC0-t, mean±SD ([2]; human, in vivo, 60 mg): 24 929.7±9991.9 h*ng/mL
- CL/F, mean±SD ([2]; human, in vivo, 60 mg): 2.6 ± 0.9 L/h
- Cmax, mean±SD ([2]; human, in vivo, 60 mg): 2476.7 ± 342.7 ng/mL
- Tmax, median (range) ([2]; human, in vivo, 60 mg): 2.0 (2.0-3.6) h
- Vd/F, mean±SD ([2]; human, in vivo, 60 mg): 32.0 ± 8.8 L
- t½, median (range) ([2]; human, in vivo, 60 mg): 8.5 (7.9-9.9) h
- λz, mean±SD ([2]; human, in vivo, 60 mg): 8.0 ± 0.9 h⁻¹
- AUC0-inf, mean±SD ([2]; human, in vivo, 80 mg): 76 255.9±33 943.0 h*ng/mL
- AUC0-t, mean±SD ([2]; human, in vivo, 80 mg): 62 385.0±22 693.1 h*ng/mL
- CL/F, mean±SD ([2]; human, in vivo, 80 mg): 1.2 ± 0.6 L/h
- Cmax, mean±SD ([2]; human, in vivo, 80 mg): 3860.0 ± 1475.0 ng/mL
- Tmax, median (range) ([2]; human, in vivo, 80 mg): 2.0 (2.0-2.0) h
- Vd/F, mean±SD ([2]; human, in vivo, 80 mg): 30.6 ± 14.5 L
- t½, median (range) ([2]; human, in vivo, 80 mg): 17.0 (13.3-23.7) h
- λz, mean±SD ([2]; human, in vivo, 80 mg): 4.1 ± 1.1 h⁻¹
- AUC0-inf, mean±SD ([2]; human, in vivo, 100 mg): 40 487.6±20 226.7 h*ng/mL
- AUC0-t, mean±SD ([2]; human, in vivo, 100 mg): 38 505.2±18 191.9 h*ng/mL
- CL/F, mean±SD ([2]; human, in vivo, 100 mg): 3.1 ± 1.6 L/h
- Cmax, mean±SD ([2]; human, in vivo, 100 mg): 3425.0 ± 1516.1 ng/mL
- Tmax, median (range) ([2]; human, in vivo, 100 mg): 2.0 (1.0-4.0) h
- Vd/F, mean±SD ([2]; human, in vivo, 100 mg): 39.6 ± 1.1 L
- t½, median (range) ([2]; human, in vivo, 100 mg): 10.4 (6.6-12.9) h
- λz, mean±SD ([2]; human, in vivo, 100 mg): 5.7 ± 3.3 h⁻¹
- AUC0-inf, mean±SD ([2]; human, in vivo, 120 mg): 68 650.9±89 085.5 h*ng/mL
- AUC0-t, mean±SD ([2]; human, in vivo, 120 mg): 55 962.4±66 684.5 h*ng/mL
- CL/F, mean±SD ([2]; human, in vivo, 120 mg): 6.3 ± 5.8 L/h
- Cmax, mean±SD ([2]; human, in vivo, 120 mg): 3348.3 ± 2828.8 ng/mL
- Tmax, median (range) ([2]; human, in vivo, 120 mg): 1.9 (1.8-6.0) h
- Vd/F, mean±SD ([2]; human, in vivo, 120 mg): 88.7 ± 86.2 L
- t½, median (range) ([2]; human, in vivo, 120 mg): 11.3 (6.3-23.8) h
- λz, mean±SD ([2]; human, in vivo, 120 mg): 3.8 ± 2.9 h⁻¹
- Senaparib exposure (Cmax and AUC) versus dose ([2]; single dose, 80-120 mg): appeared to plateau
